The text below walks through data of patent US20260083864A1, “CONTRAST AGENTS FOR USE IN DIAGNOSTIC COMPUTED TOMOGRAPHY IMAGING” (Bayer Aktiengesellschaft, priority 2022, published 2026).

The nature of data set [1]: Relaxivity measurements at 1.41 T in water. In kind it is physicochemical. The conditions noted are these: 37° C., normalized to Gd. An outline of the steps:
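T1 by inversion recovery and T2 by CPMG at 1.41 T (60 MHz), 37° C, relaxation delay ≥5×T1. Three Gd concentrations between 0.05 and 2 mM; relaxivities derived from measured relaxation rates in water.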

Data set [2] in a line: Relaxivity measurements at 1.41 T in human plasma. In kind it is physicochemical. Particulars: 37° C., normalized to Gd. In short, it runs like this: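 T1 determined by inversion recovery (8 inversion-time steps) and T2 by CPMG sequence, both with relaxation delay ≥5×T1. Each relaxivity used three Gd concentrations between 0.05 and 2 mM. Relaxivities were derived from relaxation rates measured in water and plasma.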

The test system of a further data set is plasma proteins. The data set can be described thus: Plasma protein binding, equilibrium dialysis, rat. The format is in vitro ADME. The source says: The binding of Example 1 and 15 to plasma proteins of different species (human, dog, monkey, rabbit, mouse and rat) was investigated in vitro by using equilibrium dialysis in reusable 96-well Micro-Equilibrium Dialysis Devices (ht dialysis) (Banker M J et al. J Pharm Sci. 2003 May; 92 (5): 967-74).

Data set [3] in a line: Biliary elimination in bile duct cannulated (BDC) rats. The conditions noted are these: 0.1 mmol Gd/kg bw i.v.
Protocol: All animals are initially anesthetized using a body weight-adjusted intramuscular injection of a mixture (1+2) of xylazine hydrochloride (20 mg/mL, Rompun 2%, Bayer Vital GmbH, Leverkusen) and ketamine hydrochloride (100 mg/mL, Ketavet, Pfizer, Pharmacia GmbH, Berlin) using 1 mL/kg body weight. The continuous anesthesia of the animals is achieved by the intravenous injection of 1.5 mL per hour (Braun perfusor infusion of 1+2, 1:20 saline, xylazine hydrochloride 20 mg/mL, Rompun 2%, Bayer Vital GmbH, Leverkusen and ketamine hydrochloride 100 mg/mL, Ketavet, Pfizer, Pharmacia GmbH, Berlin) via tail vein (Introcan, 24G, yellow). The animals received 0.1 mmol Gd/kg bw as intravenous bolus injection via tail vein (50 mmol Gd/L formulation). Bile was sampled 0-0.5 h, 0.5-1 h, 1-2 h, 2-3 h und 3-4 h post injection. […] The bile fractions (n=3 times 10 μL) were dried for 2 h at 90° C. and 50 μL 65% nitric acid (HNO3, Fa. Fisher, Optima Grade #1219010) and 30 μL hydrogen peroxide 30% (H2O2 Fa VWR Chemicals, AnalaR NORMAPUR, #18J024022) were added and processed in microwave oven (5 cycles: 5 min 40W, 5 min 120W, 10 min 200W, 10 min 320W and 25 min 400W, Fa. CEM, Mars5 Xpress).
For data set [4] the following is noted: reference compounds, 1.5 T, 37° C., from Rohrer et al.; cited from earlier work.
For data set [5] the following is noted: reference compounds, 1.5 T, 37° C., bovine plasma instead of human plasma, from Rohrer et al.; cited from earlier work.

Read-outs that look alike come from different tables or passages of the source.

The compound `CCOCCOCCOc1ccc(CC(C(=O)O)N2CCN(CC(=O)[O-])CCN(CC(=O)[O-])CCN(CC(=O)[O-])CC2)cc1.[Gd+3]` (stereo not shown) [Example 2, gadolinium 2,2′,2″-{10-[1-carboxy-2-{4-[2-(2-ethoxyethoxy)ethoxy]phenyl}ethyl]-1,4,7,10-tetraazacyclododecane-1,4,7-triyl}triacetate] gave a r1 water in data set [1] of 4.4 L/mmol/s. The compound further had a r1 human plasma in data set [2] of 6.2 L/mmol/s. The same compound showed a Fraction unbound fu in the data set on plasma proteins of more than 95%.

`CCOc1ccc(CCOCC(C(=O)O)N2CCN(CC(=O)[O-])CCN(CC(=O)[O-])CCN(CC(=O)[O-])CC2)cc1.[Gd+3]` (stereo not shown) [Example 1, gadolinium 2,2′,2″-(10-{1-carboxy-2-[2-(4-ethoxyphenyl)ethoxy]ethyl}-1,4,7,10-tetraazacyclododecane-1,4,7-triyl)triacetate]: the r1 water in data set [1] amounted to 4.1 L/mmol/s. In data set [2], this compound returned a r1 human plasma of 6.5 L/mmol/s. Besides, the Fraction unbound fu in the data set with plasma proteins is reported as 92%. Moreover, the “Biliary excretion, % of injected dose, Mean ± SD (cumulative)” value in data set [3] (bile fraction 0-0.5 h) amounted to 55.5 ± 1.7%; in data set [3] (bile fraction 0.5-1 h) it was 62.6 ± 0.7%; in data set [3] (bile fraction 1-2 h) it was 65.1 ± 1.3%; in data set [3] (bile fraction 2-3 h) it was 65.6 ± 1.6%; in data set [3] (bile fraction 3-4 h), 65.8 ± 1.7%.

As to `CCOc1ccc(CC(CN(CCN(CC(=O)[O-])CC(=O)[O-])CC(=O)[O-])N(CC(=O)[O-])CC(=O)[O-])cc1.[Gd+3].[Na+].[Na+]` (stereo not shown) [RC1, gadoxetate disodium, reference compound], the r1 water in data set [4] was 3.3 L/mmol/s. In data set [5], the “r1 plasma (r1 human plasma)” value was 5.2 L/mmol/s.

Compound `CCOCCOCCOc1ccc(CCC[C@@H](C(=O)O)N2CCN([C@@H](CO)C(=O)[O-])CCN([C@@H](CO)C(=O)[O-])CCN([C@@H](CO)C(=O)[O-])CC2)cc1.[Gd+3]` [Example 15, gadolinium (2S,2′S,2″S)-2,2′,2″-{10-[(1S)-1-carboxy-4-{4-[2-(2-ethoxyethoxy)ethoxy]phenyl}butyl]-1,4,7,10-tetraazacyclododecane-1,4,7-triyl}tris(3-hydroxypropanoate)] registered a r1 water in data set [1] of 5.1 L/mmol/s. Further, the r1 human plasma in data set [2] worked out at 8.7 L/mmol/s. The Fraction unbound fu with plasma proteins amounted to 71%.
